Several values for one entry are separate records, joined by “and”; a condition that tells them apart may be missing. Equal entries are not always repeated.
Assays:
free fatty acids (FFS) [1] = experiment: influence on the free fatty acids (FFS) in starved (hyperlipacidaemic) animals, hunger lipolysis; type: in vivo, rats (Wistar); settings: starved
Protocol: Investigations on a total of 260 Wistarrats were conducted with 7-[3-(N-methyl-N-2-hydroxyethyl)-amino-2-hydroxypropyl]-1,3-dimethylxanthine-3-methylpyrazole-5-carboxylate.
Examination of the influence of 7-[3-(N-methyl-N-2-hydroxy-
ethyl)-amino-2-hydroxypropyl]-1,3-dimethylxanthine-3-methyl-
pyrazole-5-carboxylate on the serum fatty acids (FFS) of
Male Rats, starve for 17 hours
Dose: 100 mg/kg body weight, oral by esophagus probe,
Blood removal: 1 hour after application
pyrazole-5-carboxylate on the free fatty acids (FFS) in
starved animals 1 hour after application
Comparative examinations of the influence of 7-[3-(N-methyl-
carboxylic acid on the free fatty acids (FFS) in starved
animals 1 hour after application
pyrazole-5-carboxylic acid on the free fatty acids (FFS)
in starved animals 6 hours after application

serum triglycerides (TG) = experiment: influence on the serum triglycerides (TG) in normal animals; type: in vivo, Rats (Wistar); settings: for TG: starve for 5 hours; for TG, mean (x): 1 hour
Protocol: Rats, starve for 5 hours
40 mg/kg body weight of active principle according to
the invention, oral by esophagus probe 1 hour before
12 mg/kg body weight of 3-methylpyrazole-5-carboxylic
acid, equim. dosage, 1 hour before removal of blood
Dose: 10 mg/kg body weight of active principle according to the
invention, oral by esophagus probe 1 hour before blood removal
Dose: 3 mg/kg body weight of 3-methylpyrazole-5-carboxylic acid,
equim. dosage, oral by esophagus probe 1 hour before

free fatty acids (FFS) [2] = experiment: influence on the free fatty acids (FFS) after repeated application once daily for 4 days; type: in vivo, Rats male (Wistar); settings: for free fatty acids (FFS): individual animals, 15 mg/kg
Protocol: Rats male, repeated application once daily for 4 days,
on the 4th day groups of 10 animals were killed at
intervals of 30 minutes, 1 hour and 2 hours after the
last application by ether narcosis and heart puncture.
10 controls were given esophagus probe, animals starved
for 17 hours before killing (cf. FIG. 4)
7-[3-(N-methyl-2-hydroxyethyl)-amino-2-
hydroxypropyl]-1,3-dimethylxanthine-3-
methylpyrazole-5-carboxylate 50 mg/kg peroral
3-methylpyrazole-5-carboxylic acid (3-MPC)
eq./kg 15 mg/kg peroral

[3] = starving rats; David L. Smith et al; cited from earlier work
[4] = tested on: free fatty acids and triglycerides in the serum; settings: cited from earlier work
[5] = free acid, known per se; cited from earlier work

## Cc1cc(C(=O)O)[nH]n1 [3-methylpyrazole-5-carboxylic acid, reference compound]
Free fatty acids (FFS) [1]; Table 5, individual animals, 1 hour after application, 15 mg/kg
  FFS: 0.41 μval/ml and 0.43 μval/ml and 0.59 μval/ml and 0.52 μval/ml and 0.67 μval/ml and 0.37 μval/ml and 0.40 μval/ml and 0.54 μval/ml and 0.44 μval/ml
Free fatty acids (FFS) [1]; Table 5, mean, n=10, 1 hour after application, 15 mg/kg, control 1.08, p<0.001
  FFS, mean: 0.47 μval/ml
Free fatty acids (FFS) [1]; Table 6, individual animals, 6 hours after application, 15 mg/kg p.o., 15 mg/kg
  FFS: 0.51 μval/ml and 0.50 μval/ml and 0.67 μval/ml and 0.64 μval/ml and 0.56 μval/ml and 0.53 μval/ml and 0.61 μval/ml and 0.85 μval/ml and 0.44 μval/ml and 0.54 μval/ml and 0.58 μval/ml and 1.00 μval/ml and 0.47 μval/ml and 1.46 μval/ml and 1.10 μval/ml
Free fatty acids (FFS) [1]; Table 6, mean, n=21, 6 hours after application, 15 mg/kg p.o., control 0.86, p<0.01
  FFS, mean (x): 0.69 μval/ml
Serum triglycerides (TG); Table 7, individual animals, 12 mg/kg (equim. dosage) 1 hour before removal of blood, 12 mg/kg
  TG: 90.2 mg % and 87.3 mg % and 58.7 mg % and 107.4 mg % and 51.6 mg % and 55.8 mg % and 71.6 mg % and 60.1 mg % and 68.7 mg %
Serum triglycerides (TG); Table 7, mean, 12 mg/kg (equim. dosage), control x = 66.4
  TG, mean (x): 74.1 mg %
Serum triglycerides (TG); Table 8, individual animals, 3 mg/kg (equim. dosage) oral 1 hour before blood removal, 3 mg/kg
  TG: 137.4 mg % and 87.3 mg % and 70.2 mg % and 74.4 mg % and 50.1 mg % and 43.0 mg % and 57.2 mg % and 51.5 mg % and 32.9 mg % and 73.0 mg %
Serum triglycerides (TG); Table 8, mean, 3 mg/kg (equim. dosage) oral, control x = 86.3, p>0.05→Ko., p>0.05→xant.-carbox.
  TG, mean (x): 67.7 mg %
Serum triglycerides (TG); equimolecular doses of the free acid, result in words
  effect on serum triglyceride level of normal animals: relatively weak, i.e. insignificant effect
Free fatty acids (FFS) [2]; 15 mg/kg p.o. 4 × appl., 30' after last application
  free fatty acids (FFS): 0.66 μval/ml plasma and 0.59 μval/ml plasma and 0.53 μval/ml plasma and 0.91 μval/ml plasma and 0.56 μval/ml plasma and 0.95 μval/ml plasma and 1.02 μval/ml plasma and 0.81 μval/ml plasma and 0.80 μval/ml plasma and 0.60 μval/ml plasma
Free fatty acids (FFS) [2]; 15 mg/kg p.o. 4 × appl., 1 h after last application
  free fatty acids (FFS): 0.75 μval/ml plasma and 0.73 μval/ml plasma and 0.95 μval/ml plasma and 0.96 μval/ml plasma and 1.03 μval/ml plasma and 1.16 μval/ml plasma and 1.08 μval/ml plasma and 0.84 μval/ml plasma and 1.24 μval/ml plasma and 0.92 μval/ml plasma
Free fatty acids (FFS) [2]; 15 mg/kg p.o. 4 × appl., 2 h after last application
  free fatty acids (FFS): 0.62 μval/ml plasma and 0.59 μval/ml plasma and 0.51 μval/ml plasma and 0.70 μval/ml plasma and 0.88 μval/ml plasma and 0.84 μval/ml plasma and 1.27 μval/ml plasma and 1.20 μval/ml plasma and 0.86 μval/ml plasma
Free fatty acids (FFS) [2]; mean of 9, 15 mg/kg p.o. 4 × appl., 2 h after last application, control 1.27, p<0.001
  free fatty acids (FFS), mean (x9): 0.83 μval/ml plasma
Free fatty acids (FFS) [2]; 15 mg/kg p.o. 4 × appl., 30' after last application, control 1.27, p<0.001
  free fatty acids (FFS), mean (x10): 0.74 μval/ml plasma
Free fatty acids (FFS) [2]; 15 mg/kg p.o. 4 × appl., 1 h after last application, control 1.27, p<0.001
  free fatty acids (FFS), mean (x10): 0.97 μval/ml plasma
Free fatty acids (FFS) [2]; repeated application, result in words
  weakening of effect on free fatty acid content by pretreatment: able to confirm the results of these tests
[3]
  hypoglycaemic activity relative to tolbutamide: two hundred times
[4]; observed by the authors, limits its suitability for therapeutic application
  tachyphylaxia: tachyphylaxia
[4]; pretreatment 4 to 5 days, Gerritzen et al
  effect of pretreatment on the free fatty acid content of the plasma: weakens the effect on the free fatty acid content of the plasma
[4]; small doses, starving normal rats
  level of free fatty acids and triglycerides in the serum: reduces the level of free fatty acids and triglycerides in the serum
[5]
  lipid-lowering activity: shows corresponding activity
